Laboratory results reported in patent US20060172953A1, “Treatment of benign prostatic hyperplasia using energolytic agents” (Threshold Pharmaceuticals Inc., priority 2003, published 2006).

How the values were obtained:
[1] = test system: PC3 cells; test: Apoptosis (caspase 3 activation) in citrate-oxidizing PC3 cells; assay type: cell-based, human; conditions: LNCaP vs PC3 (citrate-oxidizing) cells
Experimental: (§1) Immunoblotting: Immunoblotting was carried out as described in Example 2. […] Apoptosis assay: […] Lonidamine was added into each well at different concentrations, and then incubated for 6 h at 37° C. To assess the caspase 3 activity, the homogeneous buffer and caspase 3 substrate (Promega No G7791; Promega Corporation, 2800 Woods Hollow Road, Madison Wis. USA 53711) were added into each well in the presence or absence of caspase 3 inhibitor (Promega No G5961). The fluorescence intensity of cleaved substrate was determined using a fluorescence plate reader at excitation 485 nm and emission 530 nm.

[2] = test system: human prostate epithelial cells; test: Apoptosis assay in primary cultures of prostate epithelial cells; assay type: cell-based; conditions: primary cultures of prostate epithelial cells (accumulate citrate)
Experimental: (§2) Primary Cell Cultures: Primary cultures of human prostate epithelial cells (Cambrex No CC-2555) and human prostate stromal cells (Cambrex No CC-2508) were obtained from Cambrex Bio Science Rockland, Inc. (191 Thomaston Street, Rockland, Me. 04841). Apoptosis assay: […] Lonidamine was added into each well at different concentrations, and then incubated for 6 h at 37° C. To assess the caspase 3 activity, the homogeneous buffer and caspase 3 substrate (Promega No G7791; Promega Corporation, 2800 Woods Hollow Road, Madison Wis. USA 53711) were added into each well in the presence or absence of caspase 3 inhibitor (Promega No G5961). The fluorescence intensity of cleaved substrate was determined using a fluorescence plate reader at excitation 485 nm and emission 530 nm.

[3] = test system: actin, caspase 3, NF-κB, IκBα; test: Protein levels of actin, caspase 3, NF-κB, IκBα (immunoblot, specificity control); assay type: cell-based, human; conditions: all concentrations tested except 800 μM
Experimental: Methods: Cells were plated at a density of 5×10^5 cells into a dish, and then maintained in 37° C. incubator (5% CO2) for 2 days. Prior to the assay, cells were rinsed twice with pre-warmed (37° C.) RPMI-1640 Medium (ATCC No. 30-2001; 10 mM HEPES; 1 mM sodium pyruvate; 2 mM L-glutamine; 4500 mg glucose/L; 1500 mg sodium bicarbonate/L). Cells were incubated with 2 ml of culture medium in the absence or presence of lonidamine at different concentrations for 4 hours at 37° C. either under normoxia or hypoxia (oxygen level <0.1%). At the end of the incubation, the dish was placed on ice, and the cells were washed rapidly twice with cold PBS buffer (4° C.). […] The protein concentration was measured using a Bio-Rad protein assay. […] To detect the expression of caspase 3, NF-κB, P65 and IκBα, the membrane was blocked with TBST-containing 5% non-fat milk for 1 h at room temperature, and the proteins were detected by incubation with the corresponding antibodies overnight at 4° C. and with the alkaline phosphatase-conjugated secondary antibody for 1 h. The specific protein was detected using a colorimetric substrate, and the intensity of each protein was quantified using an NIH image system.

[4] = test system: HIF-1α; test: HIF-1α expression in LNCaP cells (immunoblot of nuclear and whole-cell extracts); assay type: cell-based, human; conditions: for reduction of HIF-1α expression/accumulation (nuclear fraction): citrate-producing cell cultured under hypoxia
Excerpt: (§3) See Franklin et al.; 1995, Endocrine 3:603-607. […] 20108 USA. Methods: […]

[5] = test system: HIF-1α; test: HIF-1α expression in PC3 cells (immunoblot of nuclear and whole-cell extracts); assay type: cell-based, human; conditions: 4 hours, dose-dependent
Excerpt: as §3

[6] = test system: LNCaP cells; test: Apoptosis (caspase 3 activation) in citrate-producing LNCaP cells; assay type: cell-based, human
Experimental: as §1

[7] = test system: human prostate stromal cells; test: Apoptosis assay in primary cultures of prostate stromal cells; assay type: cell-based; conditions: primary cultures of prostate stromal cells (do not accumulate citrate)
Experimental: as §2

SMILES: O=C(O)c1nn(Cc2ccc(Cl)cc2Cl)c2ccccc12 [lonidamine, 1-(2,4-dichlorobenzyl)-1H-indazole-3-carboxylic acid]
- activation of caspase 3, LNCaP compared with PC3 [1]: to a much greater extent than in citrate-oxidizing cells (PC3)
- induction of apoptosis [2]: induced apoptosis only in prostate epithelial cells in a dose-dependent manner
- inhibition of protein levels of actin, caspase 3, NF-κB, or IκBα [3]: no detectable inhibition
- level of HIF-1α protein in nuclear and whole-cell extracts ([4]; LNCaP cells, hypoxic conditions (oxygen <0.1%), 4 hours, dose-dependent): reduced the level of HIF-1α protein
- reduction of HIF-1α expression/accumulation (nuclear fraction) ([4]; 200 micromolar lonidamine): about 2 fold
- reduction of HIF-1α expression/accumulation (nuclear fraction) ([4]; higher lonidamine concentrations (above 200 micromolar)): more than 5 fold
- effect on HIF-1α expression, LNCaP compared with PC3 ([4]; hypoxic conditions (oxygen level <0.1%), LNCaP vs PC3): more pronounced in LNCaP cells than in PC3 cells
- level of HIF-1α protein in nuclear and whole-cell extracts ([5]; hypoxic conditions (oxygen <0.1%)): reduced the level of HIF-1α protein
- level of HIF-1α protein in nuclear and whole-cell extracts ([5]; normoxic conditions): reduced the level of HIF-1α protein
- activation of caspase 3 ([6]; LNCaP (citrate-producing) cells): induced activation of caspase 3
- time course of caspase 3 activation ([6]; lonidamine-treated cells): time-dependent process
- induction of apoptosis [7]: induction of apoptosis was not observed
